One assay has as its system OVX-rats. Description: Endometrial proliferation after 4-week oral treatment (uterine weight, Ki67). It counts as in vivo, rat. The conditions noted are these: 0.5 to […], 4 weeks (FIG. 5). From the text:
Endometrial proliferation was chosen as another relevant tissue-specific endpoint to determine the hormonal potency of estetrol after chronic (4-week), oral treatment in ovariectomized rats. An established 4-week animal model, also recommended for evaluation of agents for osteoporosis prevention and therapy, was used. […] 17α-ethinyl-estradiol (EE) and vehicle (1% ethanol/arachidis oil) served as additional controls in this bioassay.
Three months old female Sprague-Dawley rats were either sham-operated (Sham) or ovariectomized (OVX) one day prior to commencement of the dosing study as described in Example 2. Ten animals per treatment group were orally dosed once per day for four consecutive weeks. The dosing commenced 1 day after surgical removal of the ovaries and was administered by oral gavage using a syringe and stainless steel gavage needle at doses of 0.1 mg/kg /day EE, or either 2.5 or 0.5 mg/kg/day E4. Vehicle control was daily administered to one group of OVX-animals and sham-operated rats. After treatment, anesthetized rats were subjected to cardiac puncture and asphyxiated by CO2 inhalation. The uterine horns were isolated and weighed and then fixed in 4% formaldehyde at 4° C. […] Proliferative indices were determined by scoring positively labeled cells on Ki67 immunostained sections. Typically, for each datapoint 1000 luminal epithelial cells were evaluated.

A further assay has as its system ovariectomized rats. In words: Vaginal cornification bioassay in ovariectomized rats, 7 days, sc or po. It counts as in vivo, rat. An excerpt:
Uterine weight increase in the rat is more commonly used as a measure of estrogenicity. […] In the early 1920s it was discovered that follicular fluid from the pig ovary contained a factor(s) that caused cornification/keratinization of the vaginal epithelium in the rat (Allen and Doisy, 1923, JAMA, 81, 819-821; Allen and Doisy, 1924, Am. J. Physiol., 69, 577-588). The so-called vaginal cornification response in rats subsequently provided a bioassay for testing estrogenicity. Vaginal epithelial cornification/keratinization in ovariectomized rats can be produced only by compounds considered to be true estrogens (Jones et al, 1973, Fert. Steril. 24, 284-291). […] Adult intact female CD rats were ovariectomized to induce estrogen deficiency. […] Castrate vaginal smears are indicative that complete ovariectomy was achieved. Treatment commenced following completion of the 7 days of smearing (day 0=first day of dosing). Animals were dosed, once daily for 7 consecutive days. Daily vaginal lavages continued to be obtained for 7 days after dosing was initiated in order to detect vaginal cornification, as an indication of an estrogenic response. A drop of vaginal washings was placed on a glass slide and examined by light microscopy to detect the presence or absence of cornified epithelial cells. Vaginal lavages were obtained prior to dosing on days 0-6 and prior to necropsy on day 7. […]

Assay [1] relates to morphine-dependent ovariectomized (OVX) rat. In words: Morphine-dependent OVX rat hot flush model, naloxone-induced tail skin temperature rise. The assay is classed as in vivo. As to the method: The morphine-dependent ovariectomized (OVX) rat was used as a model for postmenopausal hot flush. The potency of estetrol (E4) to prevent tail skin temperature rises, normally accompanied by a drop in core body temp arature, after naloxone-induced opiate withdrawel was tested. 17α-ethinyl-estradiol (EE) and vehicle. (hydroxy propyl-beta-cyclodextrin 20% wt/vol) served as controls in this bioassay.
The morphine-dependent ovariectomized (OVX) rat model has been proposed by several investigators (Katovich et al, 1986, Maturitas, 67-76; Merchenthaler et al. 1998, Maturitas, 307-316) as an animal model for the hot flush. During opiate withdrawal with the morphine antagonist naloxone, tail skin temperature (TST) rises and this rise is accompanied by a drop in core body temperature. In addition, the temperature changes are accompanied by surges in LH and a transient tachycardia. These events are similar in magnitude and temporal nature to those observed in the menopausal hot flush.
Three days prior to the commencement of dosing, animals were anesthetized using a ketamine/xylazine anesthetic mixture and underwent a bilateral ovariectomy. […]
For the hot flush manipulations the animals were placed in a test cage. […] The tail-skin temperature was recorded until it was stable and the animals were then injected with naloxone HCl (1 mg/kg). […]

The record followed here is patent US8048869B2, “Pharmaceutical composition for use in hormone replacement therapy” (Pantarhei Bioscience B.V., priority 2001, dated 2011).

With `C[C@]12CC[C@@H]3c4ccc(O)cc4CC[C@H]3[C@@H]1[C@@H](O)[C@@H](O)[C@@H]2O` [E4, 1,3,5 (10)-estratrien-3,15α,16α,17β-tetrol], the “percentage of Ki67-positive luminal epithelial cells, dose trend” value in the assay on OVX-rats is on record as “declined with increasing doses”. For the same compound, the “Number of Rats Exhibiting Estrogenic Response/Number of Rats Treated” value was “all rats” in the assay on ovariectomized rats (1.0 mg/kg/day, Day 7, 1 mg/kg/day) and “all rats” in the assay on ovariectomized rats (3.0 mg/kg/day, Day 7, 3 mg/kg/day). Further, the “suppressive response on TST compared with EE” value in assay [1] (po, 3.0 mg/kg/day (FIG. 3)) is given as “suppressive response similar to the potent oral estrogen, 17α-ethinyl estradiol (EE)”. The “effect on naloxone-induced tail skin temperature (TST)” value in assay [1] (po, 0.3, 1.0 and 3.0 mg/kg/day (FIG. 3)) is reported as “attenuated the TST”.
